From ChEMBL document CHEMBL5696442, “Discovery of type II inhibitors of TGFβ-activated kinase 1 (TAK1) and mitogen-activated protein kinase kinase kinase kinase 2 (MAP4K2)” (J Med Chem, 2015)
Active and inactive are the calls of the source. No cut-off for these calls is given here.

How the values were obtained:
[1] = target: Phosphatidylinositol 4-kinase alpha (Homo sapiens) (UniProt P42356); assay: Inhibition of PI4KA ATP labeling site in human Huh-7 cell lysate at 1 uM by KiNativ Profiling analysis relative to control; assay type: subcellular
[2] = target: Dual specificity mitogen-activated protein kinase kinase 2 (Homo sapiens) (UniProt P36507); assay: Inhibition of MAP2K2 Lys2 labeling site in human Huh-7 cell lysate at 1 uM by KiNativ Profiling analysis relative to control; assay type: subcellular
Dual specificity mitogen-activated protein kinase kinase 2 (Homo sapiens), sequence (P36507 whole entry): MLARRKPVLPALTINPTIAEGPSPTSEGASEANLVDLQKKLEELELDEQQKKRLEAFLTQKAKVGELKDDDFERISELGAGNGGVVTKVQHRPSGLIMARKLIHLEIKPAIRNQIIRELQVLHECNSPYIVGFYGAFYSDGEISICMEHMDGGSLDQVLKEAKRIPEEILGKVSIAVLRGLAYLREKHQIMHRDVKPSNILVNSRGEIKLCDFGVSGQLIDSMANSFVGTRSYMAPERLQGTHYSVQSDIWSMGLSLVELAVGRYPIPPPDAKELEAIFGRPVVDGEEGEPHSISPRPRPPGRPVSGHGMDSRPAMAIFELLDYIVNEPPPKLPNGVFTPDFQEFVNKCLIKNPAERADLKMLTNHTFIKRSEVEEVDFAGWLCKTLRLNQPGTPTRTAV

[3] = target: Hepatocyte growth factor receptor (Homo sapiens) (UniProt P08581); assay: Inhibition of MET (unknown origin) at 10 uM by Ambit Kinomescan binding assay
Hepatocyte growth factor receptor (Homo sapiens), sequence (P08581 whole entry): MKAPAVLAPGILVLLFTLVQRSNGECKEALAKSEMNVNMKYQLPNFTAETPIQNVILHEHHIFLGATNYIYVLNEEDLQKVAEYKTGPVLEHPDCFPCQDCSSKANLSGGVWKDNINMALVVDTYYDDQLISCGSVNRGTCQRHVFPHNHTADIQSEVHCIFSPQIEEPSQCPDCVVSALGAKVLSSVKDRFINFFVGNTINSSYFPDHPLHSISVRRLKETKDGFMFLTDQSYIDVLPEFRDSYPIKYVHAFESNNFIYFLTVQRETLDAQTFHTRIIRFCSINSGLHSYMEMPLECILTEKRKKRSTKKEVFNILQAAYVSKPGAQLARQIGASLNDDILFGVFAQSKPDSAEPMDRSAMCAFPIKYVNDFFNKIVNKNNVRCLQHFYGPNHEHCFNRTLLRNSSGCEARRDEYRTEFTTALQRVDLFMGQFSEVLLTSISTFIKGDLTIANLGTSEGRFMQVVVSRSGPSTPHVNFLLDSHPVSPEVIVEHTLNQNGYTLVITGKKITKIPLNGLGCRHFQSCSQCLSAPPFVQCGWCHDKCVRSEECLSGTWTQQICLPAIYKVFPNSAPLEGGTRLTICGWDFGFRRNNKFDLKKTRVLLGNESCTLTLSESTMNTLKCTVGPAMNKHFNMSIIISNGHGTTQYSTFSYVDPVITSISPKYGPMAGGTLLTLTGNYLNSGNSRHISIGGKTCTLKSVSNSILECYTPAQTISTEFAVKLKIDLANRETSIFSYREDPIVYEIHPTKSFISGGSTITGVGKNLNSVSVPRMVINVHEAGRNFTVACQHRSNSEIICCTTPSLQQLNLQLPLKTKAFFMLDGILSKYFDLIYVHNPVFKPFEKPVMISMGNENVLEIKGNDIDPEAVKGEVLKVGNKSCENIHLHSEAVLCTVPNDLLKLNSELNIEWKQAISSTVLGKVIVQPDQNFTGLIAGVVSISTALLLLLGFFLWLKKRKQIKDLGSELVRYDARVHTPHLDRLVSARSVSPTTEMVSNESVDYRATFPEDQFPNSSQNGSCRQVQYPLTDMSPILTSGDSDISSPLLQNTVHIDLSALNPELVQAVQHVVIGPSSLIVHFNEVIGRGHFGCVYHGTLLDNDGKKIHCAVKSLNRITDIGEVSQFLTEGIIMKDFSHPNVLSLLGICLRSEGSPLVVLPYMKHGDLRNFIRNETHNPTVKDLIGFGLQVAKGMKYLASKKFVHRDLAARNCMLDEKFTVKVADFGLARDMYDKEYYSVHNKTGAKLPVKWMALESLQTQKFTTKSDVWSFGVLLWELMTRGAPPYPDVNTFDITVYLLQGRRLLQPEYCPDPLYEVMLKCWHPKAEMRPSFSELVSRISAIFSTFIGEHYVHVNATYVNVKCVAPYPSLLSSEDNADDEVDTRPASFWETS

[4] = target: Calcium/calmodulin-dependent protein kinase type II subunit delta (Homo sapiens) (UniProt Q13557); assay: Inhibition of CAMK2d K1 labeling site in human Huh-7 cells at 10 uM by KiNativ Profiling analysis relative to control; assay type: cell-based
Calcium/calmodulin-dependent protein kinase type II subunit delta (Homo sapiens), sequence (Q13557 whole entry): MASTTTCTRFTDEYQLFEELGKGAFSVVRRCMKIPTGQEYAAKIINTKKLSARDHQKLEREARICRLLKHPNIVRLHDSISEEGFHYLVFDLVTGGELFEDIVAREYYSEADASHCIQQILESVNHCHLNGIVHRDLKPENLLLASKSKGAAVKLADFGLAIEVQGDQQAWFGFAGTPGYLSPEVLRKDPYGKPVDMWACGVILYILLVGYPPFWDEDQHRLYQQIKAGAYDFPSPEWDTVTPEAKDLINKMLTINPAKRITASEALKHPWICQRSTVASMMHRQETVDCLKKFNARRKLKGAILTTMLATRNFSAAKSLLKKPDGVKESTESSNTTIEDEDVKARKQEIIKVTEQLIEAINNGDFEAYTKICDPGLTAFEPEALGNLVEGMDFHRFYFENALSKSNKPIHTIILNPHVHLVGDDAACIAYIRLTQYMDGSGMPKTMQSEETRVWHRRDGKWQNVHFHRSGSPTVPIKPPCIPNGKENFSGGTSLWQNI

[5] = target: T1, Serine/threonine-protein kinase ULK1 (Homo sapiens) (UniProt O75385); assay: Inhibition of ULK1 Lys2 labeling site in human A-375 cells at 0.5 uM by KiNativ Profiling analysis relative to control; assay type: cell-based
T1 sequence (whole entry): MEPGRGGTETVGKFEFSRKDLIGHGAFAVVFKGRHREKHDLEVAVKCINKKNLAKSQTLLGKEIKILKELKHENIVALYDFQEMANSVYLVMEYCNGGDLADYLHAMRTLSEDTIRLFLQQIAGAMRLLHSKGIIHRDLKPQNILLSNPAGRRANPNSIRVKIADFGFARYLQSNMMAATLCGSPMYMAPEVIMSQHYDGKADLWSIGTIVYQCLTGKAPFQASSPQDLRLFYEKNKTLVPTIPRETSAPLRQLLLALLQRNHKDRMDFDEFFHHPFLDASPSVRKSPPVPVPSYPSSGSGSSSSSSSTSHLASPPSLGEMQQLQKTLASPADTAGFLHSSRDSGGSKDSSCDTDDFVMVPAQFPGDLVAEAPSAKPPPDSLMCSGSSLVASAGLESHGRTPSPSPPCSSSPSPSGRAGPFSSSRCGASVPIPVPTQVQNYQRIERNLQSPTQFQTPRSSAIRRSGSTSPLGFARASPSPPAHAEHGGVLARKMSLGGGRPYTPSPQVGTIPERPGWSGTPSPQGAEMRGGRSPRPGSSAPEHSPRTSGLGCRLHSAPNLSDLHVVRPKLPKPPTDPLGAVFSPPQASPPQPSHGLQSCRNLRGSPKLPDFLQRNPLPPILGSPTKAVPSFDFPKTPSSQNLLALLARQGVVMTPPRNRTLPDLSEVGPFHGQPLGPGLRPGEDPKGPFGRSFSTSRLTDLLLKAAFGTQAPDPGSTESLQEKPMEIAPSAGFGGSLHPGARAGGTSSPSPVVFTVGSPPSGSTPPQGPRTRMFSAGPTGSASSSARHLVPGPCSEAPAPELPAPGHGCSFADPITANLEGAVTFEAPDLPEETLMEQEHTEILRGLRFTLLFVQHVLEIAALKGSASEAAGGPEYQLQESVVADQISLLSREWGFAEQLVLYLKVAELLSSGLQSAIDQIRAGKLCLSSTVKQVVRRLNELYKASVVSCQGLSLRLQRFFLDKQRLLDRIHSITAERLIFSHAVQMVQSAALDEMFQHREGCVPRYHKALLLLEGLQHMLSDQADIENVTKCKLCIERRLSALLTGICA

[6] = target: T2, Dual specificity mitogen-activated protein kinase kinase 6 (Homo sapiens) (UniProt P52564); assay: Inhibition of MAP2K6 Lys2 labeling site in human A-375 cells at 0.5 uM by KiNativ Profiling analysis relative to control; assay type: cell-based
T2 sequence (whole entry): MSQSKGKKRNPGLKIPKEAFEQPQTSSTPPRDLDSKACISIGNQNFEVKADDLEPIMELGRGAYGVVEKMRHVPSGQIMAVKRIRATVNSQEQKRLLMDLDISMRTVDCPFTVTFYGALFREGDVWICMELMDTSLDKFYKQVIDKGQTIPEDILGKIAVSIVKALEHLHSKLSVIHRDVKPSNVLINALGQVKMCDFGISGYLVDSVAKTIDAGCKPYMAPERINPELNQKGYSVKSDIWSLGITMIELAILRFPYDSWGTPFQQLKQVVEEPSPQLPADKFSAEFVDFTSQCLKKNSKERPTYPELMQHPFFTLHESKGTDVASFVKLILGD

[7] = target: Cyclin-dependent kinase 18 (Homo sapiens) (UniProt Q07002); assay: Inhibition of PCTAIRE3 Lys1 labeling site harbouring SKLTENLVALKEIRLEHEEGAPCTAIR in human A-375 cells at 0.05 uM by KiNativ Profiling analysis relative to control; assay type: cell-based
Cyclin-dependent kinase 18 (Homo sapiens), sequence (Q07002 whole entry): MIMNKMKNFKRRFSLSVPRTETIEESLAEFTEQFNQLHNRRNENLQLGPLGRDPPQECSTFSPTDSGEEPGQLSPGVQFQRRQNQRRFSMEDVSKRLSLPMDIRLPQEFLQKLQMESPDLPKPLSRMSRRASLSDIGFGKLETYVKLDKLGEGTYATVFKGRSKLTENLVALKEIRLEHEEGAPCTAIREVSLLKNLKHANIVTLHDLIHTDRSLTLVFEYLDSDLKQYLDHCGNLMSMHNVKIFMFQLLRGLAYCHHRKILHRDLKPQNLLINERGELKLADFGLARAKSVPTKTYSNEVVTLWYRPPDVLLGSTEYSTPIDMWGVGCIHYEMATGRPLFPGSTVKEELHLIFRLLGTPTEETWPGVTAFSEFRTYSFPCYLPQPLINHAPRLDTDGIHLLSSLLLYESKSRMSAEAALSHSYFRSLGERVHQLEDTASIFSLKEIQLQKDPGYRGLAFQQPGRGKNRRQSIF

[8] = target: Aurora kinase B (Homo sapiens) (UniProt Q96GD4); assay: Inhibition of AURKB (unknown origin) at 1 uM by Ambit Kinomescan binding assay relative to control
Aurora kinase B (Homo sapiens), sequence (Q96GD4 whole entry): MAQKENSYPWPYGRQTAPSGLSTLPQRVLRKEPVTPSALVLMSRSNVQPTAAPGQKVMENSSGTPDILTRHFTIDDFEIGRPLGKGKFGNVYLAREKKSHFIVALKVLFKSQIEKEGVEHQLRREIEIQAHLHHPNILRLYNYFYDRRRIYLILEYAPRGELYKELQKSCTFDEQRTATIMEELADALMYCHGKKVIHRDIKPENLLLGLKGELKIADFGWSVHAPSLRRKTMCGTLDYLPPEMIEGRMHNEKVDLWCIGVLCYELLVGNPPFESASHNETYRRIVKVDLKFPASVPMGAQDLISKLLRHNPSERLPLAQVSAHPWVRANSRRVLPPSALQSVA

CNc1cc(Oc2cc(C(=O)Nc3cc(N4CCN(C)CC4)cc(C(F)(F)F)c3)ccc2C)ncn1
inhibition [1]: 2%
inhibition [2]: 15.6%

CCN1CCN(Cc2ccc(NC(=O)c3ccc(C)c(Oc4ccnc5[nH]ccc45)c3)cc2C(F)(F)F)CC1
inhibition [3]: inactive
inhibition [4]: 0.1%
inhibition [5]: -6.3%

CCN1CCN(Cc2ccc(NC(=O)c3ccc(C)c(/C=C/c4cnc5[nH]ccc5c4OC)c3)cc2C(F)(F)F)CC1
inhibition [6]: -7%
inhibition [7]: 2.7%
inhibition [8]: 65%
